Measured values: article PMC9234962, “Optimization of Peptide Linker-Based Fluorescent Ligands for the Histamine H1 Receptor” (Journal of Medicinal Chemistry, 2022)
Like-named read-outs stand apart in the source and are kept apart here. Square brackets hold non-standard residues; d marks the D form. Peptide text beside a SMILES is read from it. * marks the point of attachment. X1 = O=C(COc1ccc(/C=C/C2=[N+]3C(=Cc4ccc(-c5cccs5)n4[B-]3(F)F)C=C2)cc1)*; Propanoyl(3-Pip(4-O-2-BnPh)) = O=C(CCN1CCC(Oc2ccccc2Cc2ccccc2)CC1)*; βAla = NCCC(=O)O

Experiments:
Nluc-H1R [1] = target: T1, Nluc-H1R (Homo sapiens, UniProt P35367); experiment: NanoBRET association kinetics assay on Nluc-H1R HEK293T cells; format: binding; parameters: expressed in transfected cells
T1 sequence (P35367 whole entry): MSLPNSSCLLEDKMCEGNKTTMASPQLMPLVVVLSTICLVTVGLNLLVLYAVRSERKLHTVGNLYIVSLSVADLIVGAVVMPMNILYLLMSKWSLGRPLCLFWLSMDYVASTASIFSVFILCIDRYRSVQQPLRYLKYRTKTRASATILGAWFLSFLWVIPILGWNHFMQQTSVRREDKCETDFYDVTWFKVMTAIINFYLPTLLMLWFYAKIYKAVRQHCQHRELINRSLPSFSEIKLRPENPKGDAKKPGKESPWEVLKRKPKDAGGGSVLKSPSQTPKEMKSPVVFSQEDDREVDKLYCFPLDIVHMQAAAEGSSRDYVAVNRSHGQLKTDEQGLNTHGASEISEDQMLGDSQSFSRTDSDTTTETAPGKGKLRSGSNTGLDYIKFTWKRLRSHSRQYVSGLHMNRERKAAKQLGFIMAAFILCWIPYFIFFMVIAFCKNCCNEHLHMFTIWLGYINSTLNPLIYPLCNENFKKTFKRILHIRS
Method: For whole cell NanoBRET association kinetic experiments, 10 μM furimazine was added to each well and incubated at room temperature in the dark for 15 min to allow for stabilization of the luminescence signal. The required concentration of fluorescent ligand in the presence or absence of 10 μM of doxepin was added simultaneously, and the plates were read immediately with each well being read once per min for 90 min.
For the NanoBRET association kinetic experiments, the BRET ratio was determined for each concentration of fluorescent ligand at each time point in the presence or absence of 10 μM of doxepin. Specific binding was calculated by subtracting non-specific binding from total binding.

Nluc-H1R [2] = target: T1, Nluc-H1R; experiment: NanoBRET saturation binding assay on Nluc-H1R expressing HEK293T cells; parameters: expressed in transfected cells; details: saturation binding curves, whole HEK293T cells
From the text: (§1) Total and non-specific saturation binding curves from NanoBRET saturation binding assay were fitted simultaneously using eq 1: [drawing 4] 1 where Bmax is the maximal specific binding, [B] is the concentration of fluorescent ligand in nM, KD is the equilibrium dissociation constant in nM, M is the slope of the non-specific component, and C is the intercept with the Y axis.

Nluc-H3R = target: T2, Nluc-H3R (Homo sapiens, UniProt Q9Y5N1); experiment: NanoBRET saturation binding assay on Nluc-H3R HEK293T cell homogenates
T2 construct: expressed in transfected cells; host or cells: HEK293T, transient transfection; sonicated cell homogenates
T2 sequence (Q9Y5N1 whole entry): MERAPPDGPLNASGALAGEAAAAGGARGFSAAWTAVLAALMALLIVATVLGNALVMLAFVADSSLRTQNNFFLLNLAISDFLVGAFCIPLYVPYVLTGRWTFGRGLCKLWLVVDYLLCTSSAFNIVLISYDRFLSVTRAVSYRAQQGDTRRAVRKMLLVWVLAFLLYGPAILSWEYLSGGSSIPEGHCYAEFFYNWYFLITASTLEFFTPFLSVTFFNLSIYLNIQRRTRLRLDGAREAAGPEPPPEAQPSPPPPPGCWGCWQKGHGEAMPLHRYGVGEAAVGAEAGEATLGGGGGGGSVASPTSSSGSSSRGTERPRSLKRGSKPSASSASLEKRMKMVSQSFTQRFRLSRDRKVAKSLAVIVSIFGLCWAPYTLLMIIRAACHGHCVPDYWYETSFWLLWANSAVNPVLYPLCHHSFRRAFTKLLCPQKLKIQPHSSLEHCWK
Method: (§2) HEK293T cells were transiently transfected with 2.5 μg of cDNA encoding Nluc-H3R or Nluc-H4R and 2.5 μg of empty pcDEF3 vector using the polyethylenimine method as described previously in Mocking et al.[23] Two days after transfection, cells were collected in phosphate-buffered saline (PBS) and centrifuged at 1900g for 10 min and the cell pellet was stored at −20°C until the day of experiment. The pellet was resuspended in HBSS buffer, and cells were disrupted using a Branson sonifier 250 (Boom bv., Meppel, the Netherlands) prior to use in a NanoBRET binding assay.
For all NanoBRET binding experiments, 10 μM NanoGlo substrate (Promega) was added to each well after the incubation period and fluorescence and luminescence emissions were measured after 5 min.
as §1

human H1R = target: T3, human H1R (Homo sapiens, UniProt P35367); experiment: Ca2+ mobilization assay on human H1R-expressing CHO cells; format: cell-based; details: Gaddum equation, shift in histamine EC25 with 1 μM antagonist
T3 construct: expressed in transfected cells; host or cells: CHO cells
T3 sequence (P35367 whole entry): as the sequence (P35367 whole entry) above
Method: CHO cells expressing H1R were grown to confluence in black-walled, clear-bottom 96-well plates. On the day of the experiment, media were replaced with 100 μL of HBSS containing […], 2.3 μM Fluo-4AM (Invitrogen), 0.023% Pluronic F-127, 0.5 mM Brilliant Black BN, and 1 μM required fluorescent ligand and the plates incubated for 1 h at 37 °C in the dark. The plates were then placed in the multi-well fluorometric imaging plate reader FlexStation3 (Molecular Devices, Sunnyvale, CA) and HBSS only or HBSS containing the required concentration of histamine was added after 15 s. Fluo-4 fluorescence was measured at 520 nm (excitation at 485 nm) every 1.52 s for 200 s. For each well, the peak maximum–minimum–maximum change in fluorescence value was taken and plotted against concentration of histamine to give a dose–response curve.
Estimated affinity values (pKB) were calculated from the shift in agonist concentration–response curves in the presence of the fluorescent antagonists using the Gaddum equation (7): [drawing 10] 7 where DR (dose ratio) is the ratio of the agonist concentration required to stimulate an identical response in the presence and absence of antagonist, [B]. DR was determined from the EC25 value as there was a decrease in observed maximal efficacy of histamine in the presence of all 10 fluorescent antagonists.

Nluc-H4R = target: T4, Nluc-H4R (Homo sapiens, UniProt Q9H3N8); experiment: NanoBRET saturation binding assay on Nluc-H4R HEK293T cell homogenates
T4 construct: expressed in transfected cells; host or cells: HEK293T, transient transfection; sonicated cell homogenates
T4 sequence (Q9H3N8 whole entry): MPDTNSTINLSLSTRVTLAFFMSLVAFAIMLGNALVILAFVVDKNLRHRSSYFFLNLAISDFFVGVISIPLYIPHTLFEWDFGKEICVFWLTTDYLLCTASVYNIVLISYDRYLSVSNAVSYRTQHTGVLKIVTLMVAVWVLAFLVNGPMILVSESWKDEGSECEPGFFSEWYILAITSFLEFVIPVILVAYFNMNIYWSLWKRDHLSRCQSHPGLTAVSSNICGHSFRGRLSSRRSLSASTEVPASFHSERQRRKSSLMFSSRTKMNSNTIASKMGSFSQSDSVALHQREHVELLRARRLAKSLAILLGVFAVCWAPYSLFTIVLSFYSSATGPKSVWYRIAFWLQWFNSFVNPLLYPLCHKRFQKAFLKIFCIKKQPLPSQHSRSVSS
Method: as §2
For cell membrane NanoBRET saturation binding experiments, cell homogenates expressing the Nluc-H3R or Nluc-H4R were incubated with the required concentrations of fluorescent ligand in the absence and presence of 10 μM clobenpropit in HBSS for 2 h at 25 °C. For all NanoBRET binding experiments, 10 μM NanoGlo substrate (Promega) was added to each well after the incubation period and fluorescence and luminescence emissions were measured after 5 min.
as §1

YFP-tagged H1R = target: T5, YFP-tagged H1R (Homo sapiens, UniProt P35367); experiment: confocal imaging of YFP-tagged H1R expressing CHO cells; format: cell-based; details: 1, 5, 10, 25 nM, 30 min, 37 °C, ± 10 μM mepyramine
T5 construct: expressed in transfected cells; host or cells: CHO cells
T5 sequence (P35367 whole entry): as the sequence (P35367 whole entry) above
Method: H1R-YFP expressing CHO cells were grown to approximately 80% confluency on an 8-well Labtek chambered coverglass (Nunc Nalgene). On the day of experiment, the cells were washed two times with 200 μL of HBSS and subsequently incubated in the presence or absence of 10 μM mepyramine for 30 min at 37 °C in humidified air with 0% CO2. The required concentration of 31a was added to the wells and incubated for another 30 min at 37 °C. Images were acquired using a Zeiss LSM710 confocal microscope (Carl Zeiss GmbH, Hena, Germany) fitted with a 63× plan-Apochromat NA1.3 Ph3 oil-immersion lens. For YFP, a 488 nm argon laser was used for excitation and emission was detected using a BP505-30 filter. For fluorescent ligand 31a, a 633 nm helium-neon laser was used for excitation and emission was detected using a 650 nm long pass filter. A pinhole of 1 Airy Unit was used, and fixed laser power, gain, and offset for the BODIPY 630/650 containing compounds were kept constant across all experiments.

[3] = cell homogenates, highest concentration 1 μM for 31a, 31k
[4] = cell homogenates, highest concentration 1 μM for 31a, 31k, mean ± SEM, three experiments

SMILES: CC(C)[C@H](NC(=O)CCN1CCC(Oc2ccccc2Cc2ccccc2)CC1)C(=O)N[C@@H](CO)C(=O)N[C@@H](CC(N)=O)C(=O)NCCC(=O)N[C@@H](CCCCNC(=O)COc1ccc(/C=C/C2=[N+]3C(=Cc4ccc(-c5cccs5)n4[B-]3(F)F)C=C2)cc1)C(N)=O [Compound 31a, (S)-N1-(3-(((S)-1-Amino-6-(2-(4-((E)-2-(5,5-difluoro-7-(thiophen-2-yl)-5H-5λ^4,6λ^4-dipyrrolo[1,2-c:2’,1’-f][1,3,2]diazaborinin-3-yl)vinyl)phenoxy)acetamido)-1-oxohexan-2-yl)amino)-3-oxopropyl)-2-((S)-2-((S)-2-(3-(4-(2-benzylphenoxy)piperidin-1-yl)propanamido)-3-methylbutanamido)-3-hydroxypropanamido)succinamide] ({Propanoyl(3-Pip(4-O-2-BnPh))}-VSN[βAla]K(X1)-NH2)
- Kd (Nluc-H1R [1]; kinetic pKD, mean ± SEM, read-out: pKD determined from kon and koff (converted)): 17.8 nM
- residence time (Nluc-H1R [1]; read-out: mean residence times (MRT)): > 60 min
- kon (Nluc-H1R [1]; real-time NanoBRET, room temperature, 90 min, mean ± SEM): 14000 M⁻¹ s⁻¹
- MRT (mean residence time, 1/koff) (Nluc-H1R [1]; real-time NanoBRET, mean ± SEM): 1.26 ± 0.17 h
- koff (Nluc-H1R [1]; real-time NanoBRET, mean ± SEM): 0.000233 s⁻¹
- Kd (Nluc-H1R [2]): 4 nM
- pKD (Nluc-H1R [2]; non-specific with 10 μM mepyramine, mean ± SEM): 8.40 ± 0.08
- Kd (Nluc-H3R; [3]): < 1000 nM
- Nluc-H3R pKD (Nluc-H3R; [4]): < 6
- binding at H3R in saturation assay (in words) (Nluc-H3R; concentrations of up to 1 μM): little to no binding
- Kb (human H1R; mean ± SEM, four experiments, read-out: pKB (converted)): 2.75 nM
- Kb (human H1R; read-out: KB (converted)): 3 nM
- Kd (Nluc-H4R; [3]): < 1000 nM
- Nluc-H4R pKD (Nluc-H4R; [4]): < 6
- binding at H4R in saturation assay (in words) (Nluc-H4R; concentrations of up to 1 μM): little to no binding
- localization in confocal imaging (YFP-tagged H1R): localized to the plasma membrane of the cells with almost no intracellular uptake
